The values below come from ChEMBL document CHEMBL1909046, “DrugMatrix in vitro pharmacology data”.

Test [1] has as its target Beta-2 adrenergic receptor (Homo sapiens, UniProt P07550). The test is described as follows: DRUGMATRIX: Adrenergic beta2 radioligand binding (ligand: [3H] CGP-12177). The following applies: Not Active = under 50% inhibition at 10 µM. The test is classed as cell membranes, CHO, Membrane.
The target in test [2] is Beta-3 adrenergic receptor (Homo sapiens, UniProt P13945). As to the kind of experiment: DRUGMATRIX: Adrenergic beta3 radioligand binding (ligand: [125I] Cyanopindolol). The note with it: Not Active = under 50% inhibition at 10 µM. The test is classed as cell membranes, HEK293, Membrane.
Test [3] can be described thus: DRUGMATRIX: ATPase, Na+/K+ enzyme inhibition (substrate: ATP). The class given is tissue-based, Sus scrofa, Heart. The note with it: Not Active = under 50% inhibition at 10 µM.
A further test concerns the target Cannabinoid receptor 1 (Homo sapiens, UniProt P21554). The test is classed as cell membranes, Membrane. The following applies: chem-1. Also: in other assays of this panel Not Active means under 50% inhibition at 10 µM.
Test [4] is described as follows: DRUGMATRIX: Phorbol Ester radioligand binding (ligand: [3H] PDBu). The class given is cell membranes, Mus musculus, ICR, Brain, Membrane. The note with it: Not Active = under 50% inhibition at 10 µM.
Test [5] concerns the target Platelet-activating factor receptor (Homo sapiens, UniProt P25105). As to the kind of experiment: biochemical. The test is classed as tissue-based. The note with it: platelet. Also: in other assays of this panel Not Active means under 50% inhibition at 10 µM.
The next test concerns the target T1, Neutrophil elastase (Homo sapiens, UniProt P08246).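 Also: inhibition of neutrophil elastase enzyme activity, measured with a p-nitroanilide-linked peptide substrate; in other assays of this panel Not Active means under 50% inhibition at 10 µM.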
T1 sequence (P08246 whole entry): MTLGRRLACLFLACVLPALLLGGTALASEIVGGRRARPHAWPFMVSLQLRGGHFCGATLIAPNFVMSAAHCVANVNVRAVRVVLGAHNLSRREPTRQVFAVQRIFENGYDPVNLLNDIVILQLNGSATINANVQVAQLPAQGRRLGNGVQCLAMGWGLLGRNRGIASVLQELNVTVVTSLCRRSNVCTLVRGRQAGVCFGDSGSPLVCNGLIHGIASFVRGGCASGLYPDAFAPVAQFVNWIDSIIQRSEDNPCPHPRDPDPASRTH
The test is classed as tissue-based.

A word on the IC50: it is the concentration needed to halve the response being measured. In general, Ki refers to the dissociation constant of the complex between target and ligand, obtained from inhibition or displacement.

Platelet-activating factor receptor, sequence (P25105 whole entry): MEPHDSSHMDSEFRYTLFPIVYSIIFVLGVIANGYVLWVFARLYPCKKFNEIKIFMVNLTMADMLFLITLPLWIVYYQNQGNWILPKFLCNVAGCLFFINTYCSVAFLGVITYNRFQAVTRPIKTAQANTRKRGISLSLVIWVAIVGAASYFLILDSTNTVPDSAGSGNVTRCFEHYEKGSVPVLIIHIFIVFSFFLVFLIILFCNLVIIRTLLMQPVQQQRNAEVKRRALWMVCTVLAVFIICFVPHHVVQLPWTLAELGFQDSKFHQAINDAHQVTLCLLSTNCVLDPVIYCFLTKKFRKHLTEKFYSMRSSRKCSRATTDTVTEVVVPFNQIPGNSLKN
Beta-2 adrenergic receptor, sequence (P07550 whole entry): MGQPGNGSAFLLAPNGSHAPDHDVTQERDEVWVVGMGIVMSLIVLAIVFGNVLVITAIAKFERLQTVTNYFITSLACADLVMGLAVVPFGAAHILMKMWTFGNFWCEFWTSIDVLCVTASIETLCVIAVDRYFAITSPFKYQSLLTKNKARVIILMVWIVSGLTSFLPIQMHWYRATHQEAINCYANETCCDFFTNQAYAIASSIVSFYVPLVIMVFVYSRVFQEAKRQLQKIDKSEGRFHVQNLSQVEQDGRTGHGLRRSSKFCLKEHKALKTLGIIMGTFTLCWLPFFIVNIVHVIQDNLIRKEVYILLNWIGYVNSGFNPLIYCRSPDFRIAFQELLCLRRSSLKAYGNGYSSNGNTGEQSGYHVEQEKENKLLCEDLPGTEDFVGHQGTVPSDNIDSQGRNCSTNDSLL
Beta-3 adrenergic receptor, sequence (P13945 whole entry): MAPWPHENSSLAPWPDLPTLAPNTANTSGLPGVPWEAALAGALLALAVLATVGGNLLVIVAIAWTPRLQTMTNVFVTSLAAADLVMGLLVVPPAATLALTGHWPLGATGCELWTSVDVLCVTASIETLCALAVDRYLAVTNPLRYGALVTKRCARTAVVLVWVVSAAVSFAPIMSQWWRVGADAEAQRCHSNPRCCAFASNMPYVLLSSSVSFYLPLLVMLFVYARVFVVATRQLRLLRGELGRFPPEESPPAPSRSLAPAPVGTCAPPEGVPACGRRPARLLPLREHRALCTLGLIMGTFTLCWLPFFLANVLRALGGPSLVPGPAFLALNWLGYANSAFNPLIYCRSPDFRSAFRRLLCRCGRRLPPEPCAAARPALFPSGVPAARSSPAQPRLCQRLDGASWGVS
Cannabinoid receptor 1, sequence (P21554 whole entry): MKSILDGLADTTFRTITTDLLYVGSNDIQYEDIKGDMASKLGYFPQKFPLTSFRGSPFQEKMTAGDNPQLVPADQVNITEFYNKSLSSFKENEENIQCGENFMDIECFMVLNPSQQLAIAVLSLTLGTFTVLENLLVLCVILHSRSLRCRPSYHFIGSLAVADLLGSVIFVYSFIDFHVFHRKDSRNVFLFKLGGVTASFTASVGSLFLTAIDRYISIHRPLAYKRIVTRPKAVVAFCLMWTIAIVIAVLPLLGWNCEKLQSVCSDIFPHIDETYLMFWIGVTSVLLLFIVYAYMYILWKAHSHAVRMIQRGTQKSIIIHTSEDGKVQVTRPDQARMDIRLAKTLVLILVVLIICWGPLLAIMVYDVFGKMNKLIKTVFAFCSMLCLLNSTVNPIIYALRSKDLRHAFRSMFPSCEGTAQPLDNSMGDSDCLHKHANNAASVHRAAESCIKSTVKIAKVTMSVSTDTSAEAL

Turning to `O=C(O)c1cc(=O)c2c(OCC(O)COc3cccc4oc(C(=O)O)cc(=O)c34)cccc2o1` [CROMOLYN], the half-inhibitory concentration (IC50) result (in test [1] (cho); in test [2] (hek293); in test [3]; at Cannabinoid receptor 1; in test [4]; in test [5]) was “Not Active” throughout. Moreover, on Neutrophil elastase, the 50% inhibitory concentration (IC50) entry is “Not Active”. In addition, the inhibition constant Ki result in test [3] and in test [4] was “Not Active” throughout.
Regarding `O=P1(N(CCCl)CCCl)NCCCO1` (stereo unspecified) [CYCLOPHOSPHAMIDE ANHYDROUS], the IC50 result (in test [1] (cho); in test [2] (hek293); in test [3]; at Cannabinoid receptor 1; in test [4]; in test [5]) was “Not Active” throughout. Further, at Neutrophil elastase, the half-inhibitory concentration (IC50) result is “Not Active”. Also, the inhibition constant Ki entry in test [3] and in test [4] was “Not Active” in each case.
As to `CC(=O)O[C@]1(C(C)=O)CC[C@H]2[C@@H]3C=C(Cl)C4=CC(=O)[C@@H]5C[C@@H]5[C@]4(C)[C@H]3CC[C@@]21C` [CYPROTERONE ACETATE], the half-inhibitory concentration (IC50) result (in test [1] (cho); in test [2] (hek293); in test [3]; on Cannabinoid receptor 1; in test [4]; in test [5]) was “Not Active” throughout. For the same compound, the half-inhibitory concentration (IC50) result against Neutrophil elastase is on record as “Not Active”. The Ki entry in test [3] and in test [4] was “Not Active” in each case.
Regarding `Nc1nc(N)nc(NC2CC2)n1` [CYROMAZINE], the IC50 entry (in test [1] (cho); in test [2] (hek293); in test [3]; at Cannabinoid receptor 1; in test [4]; in test [5]) was “Not Active” in each case. Also, the IC50 entry against Neutrophil elastase is recorded as “Not Active”. The Ki entry in test [3] and in test [4] was “Not Active” throughout.
Turning to `C#C[C@]1(O)CC[C@H]2[C@@H]3CCC4=Cc5oncc5C[C@]4(C)[C@H]3CC[C@@]21C` [DANAZOL], the IC50 result in test [1] (cho) is “Not Active”; in test [2] (read-out: IC50) it was 17 µM; in test [3], “Not Active”; against Cannabinoid receptor 1, “Not Active”; in test [4] it was “Not Active”; in test [5], “Not Active”. The half-inhibitory concentration (IC50) result at Neutrophil elastase was “Not Active”. For the same compound, the Ki in test [2] (read-out: Ki) was 12.8 µM; in test [3], “Not Active”; in test [4] it was “Not Active”.
`CCN[C@@H](C)Cc1cccc(C(F)(F)F)c1` [DEXFENFLURAMINE]: the 50% inhibitory concentration (IC50) entry (in test [1] (cho); in test [2] (hek293); in test [3]; on Cannabinoid receptor 1; in test [4]; in test [5]) was “Not Active” in each case. Besides, on Neutrophil elastase, the 50% inhibitory concentration (IC50) result is given as “Not Active”. In addition, the Ki result in test [3] and in test [4] was “Not Active” in each case.
`C[C@H](C(=O)O)c1cccc(C(=O)c2ccccc2)c1` [DEXKETOPROFEN]: the IC50 entry (in test [1] (cho); in test [2] (hek293); in test [3]; on Cannabinoid receptor 1; in test [4]; in test [5]) was “Not Active” in each case. Also, the IC50 entry against Neutrophil elastase was “Not Active”. Moreover, the inhibitory constant (Ki) entry in test [3] and in test [4] was “Not Active” each time.
With `CN1C(=O)CN=C(c2ccccc2)c2cc(Cl)ccc21` [DIAZEPAM], the half-inhibitory concentration (IC50) entry (in test [1] (cho); in test [2] (hek293); in test [3]; against Cannabinoid receptor 1; in test [4]; in test [5]) was “Not Active” throughout. Also, the IC50 result at Neutrophil elastase is “Not Active”. The inhibition constant (Ki) result in test [3] and in test [4] was “Not Active” each time.
In the case of `CN1C[C@H](C(=O)N[C@]2(C)O[C@@]3(O)[C@@H]4CCCN4C(=O)[C@H](Cc4ccccc4)N3C2=O)C[C@@H]2c3cccc4[nH]cc(c34)C[C@H]21` [DIHYDROERGOTAMINE], the IC50 entry (in test [1] (cho); in test [2] (hek293); in test [3]; against Cannabinoid receptor 1; in test [4]; in test [5]) was “Not Active” in each case. Further, the IC50 result at Neutrophil elastase is listed as “Not Active”. The inhibition constant Ki result in test [3] and in test [4] was “Not Active” in each case.
For the compound `Cc1c(N(C)CS(=O)(=O)[O-])c(=O)n(-c2ccccc2)n1C.[Na+]` [DIPYRONE SODIUM], the half-maximal inhibitory concentration (IC50) entry (in test [1] (cho); in test [2] (hek293); in test [3]; on Cannabinoid receptor 1; in test [4]; in test [5]) was “Not Active” throughout. For the same compound, the half-inhibitory concentration (IC50) result against Neutrophil elastase is “Not Active”. The inhibition constant Ki result in test [3] and in test [4] was “Not Active” in each case.
As for `CC(CCc1ccc(O)cc1)NCCc1ccc(O)c(O)c1` (stereo unspecified) [DOBUTAMINE], the IC50 was 1.52 µM in test [1] (read-out: IC50); “Not Active” in test [2] (hek293); “Not Active” in test [3]; “Not Active” against Cannabinoid receptor 1; “Not Active” in test [4]; “Not Active” in test [5]. On Neutrophil elastase, the half-maximal inhibitory concentration (IC50) result was “Not Active”. For the same compound, the Ki in test [1] (read-out: Ki) is 1.04 µM; in test [3], “Not Active”; in test [4], “Not Active”.
Turning to `CCn1cc(C(=O)O)c(=O)c2cc(F)c(N3CCNCC3)nc21` [ENOXACIN], the IC50 entry (in test [1] (cho); in test [2] (hek293); in test [3]; against Cannabinoid receptor 1; in test [4]; in test [5]) was “Not Active” throughout. Moreover, the IC50 result at Neutrophil elastase is on record as “Not Active”. Besides, the inhibitory constant (Ki) entry in test [3] and in test [4] was “Not Active” in each case.
In the case of `CCC(=O)O[C@H]1[C@H](O[C@@H]2[C@@H](C)[C@H](O[C@H]3C[C@@](C)(OC)[C@@H](O)[C@H](C)O3)[C@@H](C)C(=O)O[C@H](CC)[C@@](C)(O)[C@H](O)[C@@H](C)C(=O)[C@H](C)C[C@@]2(C)O)O[C@H](C)C[C@@H]1N(C)C` [ERYTHROMYCIN PROPIONATE], the 50% inhibitory concentration (IC50) result (in test [1] (cho); in test [2] (hek293); in test [3]; on Cannabinoid receptor 1; in test [4]; in test [5]) was “Not Active” each time. The IC50 entry against Neutrophil elastase is “Not Active”. Besides, the inhibition constant Ki result in test [3] and in test [4] was “Not Active” throughout.
Consider `C=C(CC)C(=O)c1ccc(OCC(=O)O)c(Cl)c1Cl` [ETHACRYNIC ACID], for which the IC50 result (in test [1] (cho); in test [2] (hek293); in test [3]; against Cannabinoid receptor 1; in test [4]; in test [5]) was “Not Active” each time. The 50% inhibitory concentration (IC50) entry at Neutrophil elastase is recorded as “Not Active”. Further, the Ki result in test [3] and in test [4] was “Not Active” in each case.
`C#C[C@]1(O)CC[C@H]2[C@@H]3CCc4cc(O)ccc4[C@H]3CC[C@@]21C` [ETHINYL ESTRADIOL]: the IC50 result (in test [1] (cho); in test [2] (hek293); in test [3]; at Cannabinoid receptor 1; in test [4]; in test [5]) was “Not Active” in each case. At Neutrophil elastase, the IC50 entry is given as “Not Active”. Moreover, the inhibitory constant (Ki) entry in test [3] and in test [4] was “Not Active” throughout.
For the compound `OCCO` [ETHYLENE GLYCOL], the IC50 result (in test [1] (cho); in test [2] (hek293); in test [3]; against Cannabinoid receptor 1; in test [4]; in test [5]) was “Not Active” throughout. Further, the IC50 result at Neutrophil elastase is reported as “Not Active”. Moreover, the Ki result in test [3] and in test [4] was “Not Active” each time.
